From patent US9302993B2, “8-hydroxy quinoline derivatives” (PRANA BIOTECHNOLOGY LIMITED, priority 2002, dated 2016)

Tests used:
[1] = tested on: transgenic Huntington's mice (R6/2); assay: PBT1033 effects in transgenic Huntington's mice (Example 22); format: in vivo, mouse
Description: This example describes an in vivo study of PBT1033 in transgenic Huntington's mice (R6/2) using the procedure of Nyuyen, Harby and Massa, 2005. During this study, 44 samples were collected for behavioral tests, including Rotarod performance, clasping tests, body weight and lifespan observations, and 24 samples were utilized for pathology assessments, including brain sectioning and staining for measuring lateral ventricle size, brain weight, whole brain western blotting for mutant Htt aggregate accumulation, and immunocytochemistry for Htt aggregates.
GROUP A: 10+6 (pathology) R6/2 MICE, treated daily with PBT1033
GROUP B: 10+6 (pathology) R6/2 MICE, treated daily with SSV solution
GROUP C: 12+6 (pathology) wild type (WT) mice, treated daily with PBT1033
GROUP D: 12+6 (pathology) WT mice, treated daily with SSV solution
3. PBT1033 in SSV solution was orally administered to mice at 0.6 mg/0.1 ml ([…])/20 g. The PBT1033 solution was taken up into a 1-cc syringe attached to a feeding needle and the drug was delivered by oral gavage.
4. Rotarod was assessed as described by Hockly et al., the contents of which are incorporated by reference, with the modification that the SDI Rota—Rod (San Diego Instruments, San Diego), was set to linearly increase in speed to 40 rpm in 4-min ramp time. Performance is at 4th, 8th, 10th, and 12th week, with three days (one for training) per period and three times per day.
5. Body Weight: once per week, start at age 3 weeks.
6. Clasping testing and Behavioral observation: once per week from 5th week and daily during the drug treating.
7. Lifespan observation: Group A and B were treated until they died.
8. Brain lateral ventricle size: mouse brain perfusion, sectioning and staining at age 10 weeks. Mice brains were perfused and fixed with 4% PFA and stained with H&E.
9. Whole Brain Western Blotting: whole mouse brain was homogenized in buffer (10 mM Tris HCl (pH 7.4) 11 mM EDTA Na2/1% Triton X100/complete protease inhibitor mixture and then centrifuged at 7000×g for 90 s. The supernatant was boiled in SDS sample buffer for 5 mm at 100° C.
40 micrograms of total protein was run on a 10% SDS gel with a 4% stacking gel. Antibody: anti-GAPDH (1:5000), EM48 anti-Htt antibody (1:1000)
10. Brain weight: brain weighed before freezing at −80° C.
11. Immunohistochemistry was performed in accordance with the procedure in Assay 15, hereinabove.

[2] = tested on: healthy volunteers; assay: Clinical study of 1033, single and multiple oral doses (Example 23); format: in vivo
Description: 1033 was administered to healthy volunteers in a 2-part study comprising single dose administration (Stage A) and multidose administration (Stage B).
The objectives of the following trials were to determine the safety, tolerability and pharmacokinetics of single and multiple oral doses of 1033 in healthy volunteers. Double-blind studies were conducted. The protocol included safety measures designed to capture the potential human adverse effects. A total of 65 healthy subjects have been exposed to doses of 1033 (41 single dose, 24 multiple dose).
In Stage A, fifty five (55) healthy male subjects aged 18-50 years were randomised (3:1) to receive a single oral dose of either placebo or 1033 at one of 7 dose levels (25, 50, 100, 200, 300, 500 or 800 mg).
In Stage B, thirty two (32) healthy male and female subjects aged 45-75 years (eight subjects per dose level) were randomised (3:1) to receive a daily oral dose over 7 consecutive days of either placebo or 1033 at one of 4 dose levels (200, 400, 600 or 800 mg). Each dose level comprised of 4 males and 4 females; the randomisation schedule ensuring that 1 subject/sex received placebo and 3 subjects/sex received 1033.

[3] = Mice plasma concentration; format: in vivo
[4] = B:P Ratio; format: in vivo

For `CN(C)Cc1ccc2c(Cl)cc(Cl)c(O)c2n1.Cl` [compound 1033, 5,7-Dichloro-2-dimethylaminomethyl-quinolin-8-ol hydrochloride], the life span ([1]; Group A (PBT1033) compared with Group B (SSV)) was “survived significantly longer”, the “clasping latency and duration” value ([1]; Group B (SSV) compared with Group A (PBT1033)) was “significantly greater” and the body weight ([1]; Group B (SSV) vs A, C and D groups) was “significantly decreased”. For the same compound, the brain weight ([1]; R6/2 mice, Group A) was 0.373±0.0228, the rotarod performance time ([1]; R6/2 mice, Group A, 10th week) was 28 ± 4 s and the rotarod performance time ([1]; R6/2 mice, Group A, 12 week) was 26 ± 4 s. For the same compound, the Lateral ventricle area ([1]; R6/2 mice, Group A, age 10 weeks) was 0.36±0.086 mm^2, the “mutant Huntingtin (Htt) protein aggregates, Western analysis” value ([1]; whole brain, HDexon1 mice) was “not in treated animals” and the “tolerability, single oral dose” value ([2]; Stage A, healthy male volunteers aged 18 to 50 years, 25-800 mg) was “well tolerated”. The “clinical laboratory evaluations and physical assessments” value ([2]; Stage A, single oral dose) was “No clinically significant or relevant changes”, the “incidence of adverse events” value ([2]; Stage A, single oral dose) was 43.9% and the “tolerability, multiple dose” value ([2]; Stage B, healthy elderly subjects, daily oral dose over 7 days, 200-800 mg) was “generally well tolerated”. The Mice plasma concentration [3] was “Up to 500 ng/ml”, the “B:P Ratio” value ([4]; at 5 min) was 12.85 and the “B:P Ratio” value ([4]; at 60 min) was 9.45.
